Data as given in PubChem BioAssay AID1224913.

Biological target: Proto-oncogene tyrosine-protein kinase Src (Homo sapiens) (UniProt P12931)
Test: SRC Y416 autophosphorylation block in cells – cell-based, Western blot, late-stage follow-up (AID 1224913)
Settings: MDA-MB-231/MCF7 cells, pSRC Y416 Western blot; at 0.1 µM; active compounds read high

Chain of Proto-oncogene tyrosine-protein kinase Src (Homo sapiens) (P12931 whole entry, looked up): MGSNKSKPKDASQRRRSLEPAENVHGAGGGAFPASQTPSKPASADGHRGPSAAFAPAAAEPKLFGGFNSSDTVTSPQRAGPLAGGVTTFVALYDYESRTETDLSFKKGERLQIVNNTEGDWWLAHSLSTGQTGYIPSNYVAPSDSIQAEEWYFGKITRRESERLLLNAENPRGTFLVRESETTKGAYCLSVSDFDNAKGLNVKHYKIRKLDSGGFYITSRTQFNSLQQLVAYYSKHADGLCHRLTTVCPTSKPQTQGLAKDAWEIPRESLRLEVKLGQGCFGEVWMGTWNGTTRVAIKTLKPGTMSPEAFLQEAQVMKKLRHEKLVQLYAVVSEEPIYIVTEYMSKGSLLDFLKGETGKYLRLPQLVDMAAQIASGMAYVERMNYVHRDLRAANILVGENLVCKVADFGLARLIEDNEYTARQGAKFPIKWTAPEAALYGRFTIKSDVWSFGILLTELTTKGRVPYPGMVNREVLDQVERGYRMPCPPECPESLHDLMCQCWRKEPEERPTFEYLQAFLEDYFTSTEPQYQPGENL

inhibition: 100%
SMILES: COc1cc(-c2nn(CCN3CCC(N(C)C)CC3)c3ncnc(N)c23)ccc1NC(=O)OC(C)(C)C
